Laboratory results from ChEMBL document CHEMBL1130059, “Neurotrophic 3,9-bis[(alkylthio)methyl]-and-bis(alkoxymethyl)-K-252a derivatives” (J Med Chem, 1997).

How the values were obtained:
[1] = target: High affinity nerve growth factor receptor (Homo sapiens, UniProt P04629); assay: Ability to inhibit human trk A tyrosine kinase expressed in baculovirus using ELISA based enzyme assay was determined
[2] = target: T1, Choline O-acetyltransferase (Rattus norvegicus) (UniProt P32738); assay: Neurotrophic activity as measured by the ability to enhance embryonic rat spinal cord choline acetyl transferase at 30 nM; type: functional
T1 sequence (whole entry): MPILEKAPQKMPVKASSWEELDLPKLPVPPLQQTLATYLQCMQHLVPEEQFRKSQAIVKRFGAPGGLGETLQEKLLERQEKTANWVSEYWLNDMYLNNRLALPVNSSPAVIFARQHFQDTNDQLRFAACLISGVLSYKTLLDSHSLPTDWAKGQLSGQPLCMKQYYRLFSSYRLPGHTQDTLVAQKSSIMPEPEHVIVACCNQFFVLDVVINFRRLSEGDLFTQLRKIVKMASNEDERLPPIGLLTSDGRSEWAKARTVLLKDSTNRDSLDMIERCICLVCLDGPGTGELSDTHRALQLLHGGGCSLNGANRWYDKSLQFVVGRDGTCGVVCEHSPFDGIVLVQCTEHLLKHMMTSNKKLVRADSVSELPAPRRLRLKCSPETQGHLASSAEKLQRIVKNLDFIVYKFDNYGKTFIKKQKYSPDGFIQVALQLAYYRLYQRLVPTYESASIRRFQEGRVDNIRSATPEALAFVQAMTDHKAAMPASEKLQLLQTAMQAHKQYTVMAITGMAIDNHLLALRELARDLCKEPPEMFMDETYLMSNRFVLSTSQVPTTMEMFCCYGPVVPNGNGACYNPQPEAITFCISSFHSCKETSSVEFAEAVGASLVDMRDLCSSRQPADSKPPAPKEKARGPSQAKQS

[3] = target: T1, Choline O-acetyltransferase (Rattus norvegicus); assay: Neurotrophic activity as measured by the ability to enhance basal forebrain choline acetyl transferase at 250 nM; type: functional
[4] = target: T1, Choline O-acetyltransferase (Rattus norvegicus); assay: Neurotrophic activity as measured by the ability to enhance embryonic rat spinal cord choline acetyl transferase at 300 nM; type: functional
[5] = target: T1, Choline O-acetyltransferase (Rattus norvegicus); assay: Neurotrophic activity as measured by the ability to enhance basal forebrain choline acetyl transferase at 50 nM; type: functional
[6] = target: Myosin light chain kinase, smooth muscle (Gallus gallus, UniProt P11799); assay: Inhibition of Smooth muscle myosin light chain kinase of chicken gizzard
Sequence of Myosin light chain kinase, smooth muscle (P11799 whole entry): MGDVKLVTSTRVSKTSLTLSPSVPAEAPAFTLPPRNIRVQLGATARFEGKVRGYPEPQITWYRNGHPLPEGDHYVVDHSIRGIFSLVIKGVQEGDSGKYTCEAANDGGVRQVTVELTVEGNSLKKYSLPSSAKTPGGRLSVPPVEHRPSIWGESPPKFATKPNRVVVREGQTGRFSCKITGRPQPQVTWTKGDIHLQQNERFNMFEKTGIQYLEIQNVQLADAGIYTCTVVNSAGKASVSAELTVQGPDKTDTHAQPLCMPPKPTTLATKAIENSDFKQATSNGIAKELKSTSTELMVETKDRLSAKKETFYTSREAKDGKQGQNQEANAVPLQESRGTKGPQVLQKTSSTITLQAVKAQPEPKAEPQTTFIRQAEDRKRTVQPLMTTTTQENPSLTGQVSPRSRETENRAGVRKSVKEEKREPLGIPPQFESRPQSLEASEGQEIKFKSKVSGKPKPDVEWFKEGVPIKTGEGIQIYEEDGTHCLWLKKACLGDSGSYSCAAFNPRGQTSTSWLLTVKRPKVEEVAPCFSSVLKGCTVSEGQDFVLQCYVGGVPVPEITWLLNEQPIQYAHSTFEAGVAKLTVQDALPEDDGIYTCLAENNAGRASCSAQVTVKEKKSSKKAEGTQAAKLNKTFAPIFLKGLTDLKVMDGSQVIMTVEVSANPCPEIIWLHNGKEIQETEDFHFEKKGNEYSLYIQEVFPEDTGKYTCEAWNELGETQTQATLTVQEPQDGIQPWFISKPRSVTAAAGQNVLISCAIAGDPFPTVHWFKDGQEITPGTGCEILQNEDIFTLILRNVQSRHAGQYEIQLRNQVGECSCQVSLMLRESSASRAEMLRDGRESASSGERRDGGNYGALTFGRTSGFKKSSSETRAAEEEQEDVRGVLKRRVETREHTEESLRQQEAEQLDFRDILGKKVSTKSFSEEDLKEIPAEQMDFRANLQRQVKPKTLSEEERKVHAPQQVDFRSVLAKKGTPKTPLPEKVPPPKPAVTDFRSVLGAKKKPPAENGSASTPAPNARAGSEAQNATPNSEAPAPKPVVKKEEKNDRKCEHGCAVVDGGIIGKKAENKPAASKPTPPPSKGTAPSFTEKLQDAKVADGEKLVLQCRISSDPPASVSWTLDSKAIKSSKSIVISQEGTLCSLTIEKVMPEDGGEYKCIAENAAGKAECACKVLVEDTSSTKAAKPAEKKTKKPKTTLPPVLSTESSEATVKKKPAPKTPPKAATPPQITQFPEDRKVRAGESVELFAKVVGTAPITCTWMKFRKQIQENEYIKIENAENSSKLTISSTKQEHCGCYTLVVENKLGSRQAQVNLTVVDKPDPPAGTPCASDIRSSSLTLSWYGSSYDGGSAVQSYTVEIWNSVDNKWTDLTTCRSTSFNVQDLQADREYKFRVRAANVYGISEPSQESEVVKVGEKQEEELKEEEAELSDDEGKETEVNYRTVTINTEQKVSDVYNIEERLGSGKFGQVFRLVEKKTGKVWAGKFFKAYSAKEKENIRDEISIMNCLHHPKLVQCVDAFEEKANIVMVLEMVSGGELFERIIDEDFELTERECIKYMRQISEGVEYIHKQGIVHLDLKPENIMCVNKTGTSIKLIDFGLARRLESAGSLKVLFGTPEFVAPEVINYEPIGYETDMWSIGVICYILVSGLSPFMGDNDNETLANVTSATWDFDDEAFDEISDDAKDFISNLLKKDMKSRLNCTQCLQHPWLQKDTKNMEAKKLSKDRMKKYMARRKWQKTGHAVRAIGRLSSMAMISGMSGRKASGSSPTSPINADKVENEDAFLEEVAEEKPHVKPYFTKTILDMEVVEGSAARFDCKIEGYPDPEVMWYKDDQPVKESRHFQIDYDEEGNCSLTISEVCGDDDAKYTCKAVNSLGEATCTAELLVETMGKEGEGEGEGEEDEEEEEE

[7] = target: cAMP-dependent protein kinase alpha-catalytic subunit (Oryctolagus cuniculus, UniProt Q95J97); assay: Inhibition of cAMP dependent Protein kinase A of rabbit Skeletal Muscle.
Protein kinase C (PKC) = assay: Inhibition of Protein kinase C of Rat brain

Sequence of High affinity nerve growth factor receptor (P04629 whole entry): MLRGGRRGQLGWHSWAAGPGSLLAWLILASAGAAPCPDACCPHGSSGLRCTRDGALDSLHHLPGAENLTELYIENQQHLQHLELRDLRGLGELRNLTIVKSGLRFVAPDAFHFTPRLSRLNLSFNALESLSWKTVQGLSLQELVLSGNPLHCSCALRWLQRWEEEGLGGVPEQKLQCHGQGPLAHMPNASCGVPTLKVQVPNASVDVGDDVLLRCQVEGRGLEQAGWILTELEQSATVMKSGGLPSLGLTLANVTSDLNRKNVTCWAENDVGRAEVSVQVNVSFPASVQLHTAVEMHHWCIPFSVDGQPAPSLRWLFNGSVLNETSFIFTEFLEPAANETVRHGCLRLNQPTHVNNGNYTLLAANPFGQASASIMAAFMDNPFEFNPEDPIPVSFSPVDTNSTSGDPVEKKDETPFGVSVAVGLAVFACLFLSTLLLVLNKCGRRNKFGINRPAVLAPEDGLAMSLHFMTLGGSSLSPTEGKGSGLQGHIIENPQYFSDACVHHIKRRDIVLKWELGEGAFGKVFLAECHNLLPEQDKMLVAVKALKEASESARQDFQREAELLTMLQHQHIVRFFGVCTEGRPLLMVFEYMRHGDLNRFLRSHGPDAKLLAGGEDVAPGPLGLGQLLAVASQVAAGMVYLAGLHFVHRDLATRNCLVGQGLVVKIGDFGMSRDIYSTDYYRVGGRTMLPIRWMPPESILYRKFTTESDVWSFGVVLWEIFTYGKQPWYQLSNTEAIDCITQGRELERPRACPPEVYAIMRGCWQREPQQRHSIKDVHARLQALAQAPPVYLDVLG

Row | Structure (SMILES) | IC50 [1] | Control [2] | Control [3] | Control [4] | Control [5] | IC50 [6] | IC50 [7] | IC50 (Protein kinase C (PKC))
1 | CCCSCc1ccc2c(c1)c1c3c(c4c5cc(CSCCC)ccc5n5c4c1n2C1C[C@](O)(C(=O)OC)[C@]5(C)O1)CNC3=O | > 1000 nM | < 120% | 180% | 315% | < 120% | – | – | –
2 | COC(=O)[C@@]1(O)C[C@H]2O[C@]1(C)n1c3ccccc3c3c4c(c5c6ccccc6n2c5c31)C(=O)NC4 [K-252A] | – | < 120% | 325% | 186% | 148% | 20 nM | 16 nM | –
3 | COC(=O)[C@@]1(O)CC2O[C@]1(C)n1c3ccc(CO)cc3c3c4c(c5c6cc(CO)ccc6n2c5c31)C(=O)NC4 | – | < 120% | – | < 120% | – | – | – | –
4 | COCc1ccc2c(c1)c1c3c(c4c5cc(COC)ccc5n5c4c1n2C1C[C@](O)(C(=O)OC)[C@]5(C)O1)CNC3=O | 270 nM | 193% | 340% | 218% | 168% | – | – | –
5 | CCSCc1ccc2c(c1)c1c3c(c4c5cc(CSCC)ccc5n5c4c1n2C1C[C@](O)(C(=O)OC)[C@]5(C)O1)CNC3=O | > 1000 nM | 140% | 363% | 280% | 143% | > 10000 nM | > 10000 nM | 16300 nM
6 | CCOCc1ccc2c(c1)c1c3c(c4c5cc(COCC)ccc5n5c4c1n2C1C[C@](O)(C(=O)OC)[C@]5(C)O1)CNC3=O | 210 nM | 153% | 237% | 188% | < 120% | – | – | –
7 | C=CCSCc1ccc2c(c1)c1c3c(c4c5cc(CSCC=C)ccc5n5c4c1n2C1C[C@](O)(C(=O)OC)[C@]5(C)O1)CNC3=O | > 1000 nM | < 120% | 191% | 302% | < 120% | – | – | –
8 | COC(=O)[C@@]1(O)CC2O[C@]1(C)n1c3ccc(CSCCN(C)C)cc3c3c4c(c5c6cc(CSCCN(C)C)ccc6n2c5c31)C(=O)NC4 | – | < 120% | 158% | 208% | < 120% | – | – | –
9 | CCCCSCc1ccc2c(c1)c1c3c(c4c5cc(CSCCCC)ccc5n5c4c1n2C1C[C@](O)(C(=O)OC)[C@]5(C)O1)CNC3=O | > 1000 nM | < 120% | 200% | 289% | 143% | – | – | –
10 | COC(=O)[C@@]1(O)CC2O[C@]1(C)n1c3ccc(CSC(C)C)cc3c3c4c(c5c6cc(CSC(C)C)ccc6n2c5c31)C(=O)NC4 | > 1000 nM | < 120% | – | 289% | 224% | – | – | –
